# Experimental data as given in patent US20070190651A1, “Myogenic Development and Protection of Stem Cells Against Inflammation and Apoptosis By Statins and Isoprenoid Pathway Inhibitors” (Board of Regents of the University of Texas System, priority 2006, published 2007).
# Entries after “also recorded” stand apart in the source; their conditions may differ. Residues, ends and D or L forms follow the SMILES beside them. *: point of attachment. Cbz = O=C(OCc1ccccc1)*
# Assays:
# [1] = system: β-adrenergic receptors; test: Edge-motion detection of mESC-derived contractile myogenic cells; type: cell-based, murine
# Description: FIG. 11 is a series of graphs showing edge-motion detection of mESC-derived contractile myogenic cells untreated (upper) or treated with isoproterenol (10 ng/ml) in the absence (middle) or presence (lower) of propanolol (25 ng/ml).
# hESC grown in DMEM media with 10% fetal bovin serum and a group of growth factors were induced to differentiate in a hang-drop 3D cell culture system. hESCs from two (H1 or H9) lines were cultured with a mouse fetal fibroblast feeder layer. After forming EBs in the hanging-drop 3D system they were replated in 12-well plates. […] Surrounding the beating colonies, the cells developed a blood vessel-like structure (FIG. 10). Using the edge-motion detection technique, a single beating myogenic cell within the developing EBs was recorded. This provides a functional marker showing the differentiational potential in cardiomyogenesis.
# [2] = animals; cited from earlier work
# [3] = system: iNOS; test: Nitrite production (Griess reaction) in H9c2 cardiac myoblasts; type: cell-based, rat; settings: for effect on nitrite production in cells treated with simvastatin plus IL-1α: added to simvastatin + IL-1α 20 ng/mL
# Description: Cell cultures. H9c2 cells purchased from American Type Culture Collection (ATCC, Rockville, Md.) are spontaneously immortalized ventricular myoblasts from the rat embryo, with preservation of several electrical and biochemical characteristics found in adult cardiomyocytes. […] After certain time intervals, 100 μL/well culture media were collected for determination of nitrite production. Assay for NO Production. The activity of iNOS was determined in the culture medium by assaying nitrites, taken as an index of NO production, using the Griess reagent (1% sulphanilic acid and 0.1% N-[1-naphtyl] ethylenediamine-HCl in 5% phosphoric acid) as reported previously (4,18,19). Equal volumes of medium and Griess reagent were mixed, and the purple products quantified spectrophotometrically at 550 nm. Nitrite concentrations were determined from a linear standard curve constructed with known concentrations of sodium nitrite (0 to 40 μmol/L nitrite). Nitrite Assays. Nitrite, a stable end-product of nitric oxide, was measured by using Griess reagent (1% sulphanilic acid and 0.1% N-[1-naphtyl] ethylenediamine-HCl in 5% phosphoric acid). Equal volumes of medium and Griess reagent were mixed, and the resulting purple product quantified by spectrophotometric assay at 550 nm. Nitrite concentrations were calculated from a linear standard curve constructed with known concentrations of sodium nitrite (0-14 μmol/L nitrite) (19).
# [4] = system: Rho kinase; settings: cited from earlier work
# [5] = system: iNOS; test: Immunoblotting for iNOS protein in cytokine-stimulated H9c2 cardiac myoblasts; type: cell-based, rat; settings: for effect on simvastatin inhibition of cytokine-induced iNOS protein expression: added to simvastatin + IL-1α or TNF-α
# Description: Cell cultures. H9c2 cells purchased from American Type Culture Collection (ATCC, Rockville, Md.) are spontaneously immortalized ventricular myoblasts from the rat embryo, with preservation of several electrical and biochemical characteristics found in adult cardiomyocytes. They were cultured in DMEM medium (ATCC) supplemented with 10% heat-inactivated fetal bovine serum (FBS) in 95% air and 5% CO2 at 37° C. […] After certain time intervals, 100 μL/well culture media were collected for determination of nitrite production.
# Immunoblotting. Total proteins were isolated from rat cardiac myoblasts (H9c2 cells) or embryonic stem cells in an ice-cold lysis buffer containing 10 mmol/L Tris (tris(hydroxymethyl)aminomethane) (pH 7.4), 1% sodium dodecyl sulfate (SDS) and 1× protease inhibitor (1 mmol/L sodium orthovanadate). Proteins (15 μg/lane) were separated under the reducing conditions (125 mM Tris pH 6.8, 4% SDS, 10% glycerol, 0.006% bromophenol blue, 2% β-mercaptoethanol) by electrophoresis onto 5-10% SDS-polyacrylamide gel and electro-blotted to nitrocellulose membranes (Osmonics, Westborough, Mass.). The membranes were reversibly stained with Ponceau red (Sigma) to verify equal protein loading and/or transfer. After blocking in Tris-buffered saline (0.2 M Tris and 8% NaCl) containing 5% non-fat powdered milk and 0.1% Tween 20 for 1 hour at room temperature, the membranes were incubated overnight at 4° C. with following primary antibodies to (a) iNOS (Transduction Laboratories, Lexington, Ky.; BD Biosciences); (b) NF-κB p65/rel (Santa Cruz Biotechnologies, Santa Cruz, Calif.); (c) ser^32-phosphorylated inhibitor IκBα (Santa Cruz); (d) Bad (BD Biosciences, San Jose, Calif.); (e) Bcl-xL (BD Biosciences); (f) proliferating cell nuclear antigen (PCNA; BC Biosciences); (g) ryanodine receptor (Santa Cruze Biotechnology, Inc., Santa Cruz, Calif.); (h) α-sarcomeric actinin (Sigma); (i) myocardin A (developed by immunizing rabbits with a synthetic myocardin A peptide); (j) Tie-2 (Santa Cruz); (k) manganese superoxide dismutase (Santa Cruz); and (1) β-tubulin (Sigma). The blots were incubated with horseradish peroxidase-coupled secondary antibodies, washed and developed by using a SuperSignal West Pico Chemiluminescent Substrate Kit (Pierce, Rockford, Ill.). Intensity of each immunoreactive protein band was quantified by densitometric analysis. Cytokine-stimulated RAW 264.7 cells (Transduction Laboratories, Lexington, Ky.) were used as positive controls.
# [6] = system: IκBα; test: Immunoblotting for ser32 phosphorylated IκBα in H9c2 cells; type: cell-based, rat; settings: 24 h
# Description: Immunoreactive bands were quantified by densitometry (Panel B).
# Immunoblotting. Total proteins were isolated from rat cardiac myoblasts (H9c2 cells) or embryonic stem cells in an ice-cold lysis buffer containing 10 mmol/L Tris (tris(hydroxymethyl)aminomethane) (pH 7.4), 1% sodium dodecyl sulfate (SDS) and 1× protease inhibitor (1 mmol/L sodium orthovanadate). Proteins (15 μg/lane) were separated under the reducing conditions (125 mM Tris pH 6.8, 4% SDS, 10% glycerol, 0.006% bromophenol blue, 2% β-mercaptoethanol) by electrophoresis onto 5-10% SDS-polyacrylamide gel and electro-blotted to nitrocellulose membranes (Osmonics, Westborough, Mass.). The membranes were reversibly stained with Ponceau red (Sigma) to verify equal protein loading and/or transfer. […] Intensity of each immunoreactive protein band was quantified by densitometric analysis. […]
# [7] = system: murine embryonic stem cells; type: cell-based; settings: day 12
# Description: At day 12, the number of contracting EB outgrowths (Panel A) and extension of beating area (Panel B) were detrmined by morphometry. The results were plotted as percentages of the total EBs counted in each well and shown as the mean ±SD for each of the 3 separate experiments. *, P<0.05 vs untreated control; #, P<0.05 vs simvastatin-treated control.
# The murine ESC (mESC) line CCE was obtained from American Type Culture Collection (ATCC, Rockville, Md.). Murine ESCs were cultured without feeder cells in Dulbecco's modified Eagle's medium supplemented with 10% ESC-qualified Fetal Bovine Serum (FBS) (Stem Cell Technologies, Vancouver, Va.), pyruvate (Stem Cell Technologies, stock solution diluted 1:100), 2 mM L-glutamine, nonessential amino acids (Stem Cell Technologies, stock solution diluted 1:100), 100 IU/mL penicillin, 0.1 mg/mL streptomycin, and leukemia inhibitory factor (LIF) (Stem Cell Technologies). To induce differentiation, EBs were formed from undifferentiated mESCs in hanging drops of 400 cells in 20 μL of medium without LIF. After 5 days in suspension, EBs were plated on gelatin-coated dishes and cultured in cardiomyocyte-differentiation medium (Iscove's modified Eagle's medium, supplemented with 15% FBS, 2 mM L-glutamine, 5×10^−5 M β-mercaptoethanol, nonessential aminoacids, 100 IU/mL penicillin, 0.1 mg/mL streptomycin).
# Statin Treatment. […] The inhibition of endogenous cholesterol synthesis was the mechanism used for analyzing the effect of endogenous cholesterol depletion on EB differentiation. By days 8 through 12 after plating, spontaneously contracting cell clusters could be observed within the EB outgrowths. Culture media from both simvastatin-treated and untreated cells were changed each day after day 3.
# Spontaneous cardiac differentiation of mouse embryonic stem cells (mESCs) was assessed in vitro as the presence of rhythmically beating […] (EB) outgrowth. […] Thereafter, EB outgrowths were counted periodically under the inverted microscope equipped with a digital video camera, to determine whether or not they contained beating foci at different time points (days 3, 5, 7, 10, 12, and 14). At approximately day 7, contracting areas began to appear. […] Concomitant with the increased number of beating EBs, the size of the beating area for simvastatin-treated EBs increased 2-fold (evaluated at day 12) compared to that of untreated control EBs, a significant augmentation (p<0.05) (FIG. 22B).
# [8] = system: hESC-derived EB; test: hESC embryoid body formation with proteasomal inhibitor; type: cell-based, human; settings: MG132 at 100 nm in hanging drops, then regular culture 1-2 days
# Description: FIG. 13 is a pair of photomicrographs showing hESC-derived EB after treatment with MG132 for 2 days. a, untreated and b, treated.
# To determine whether protein ubiquitination has any impact on EB formation, hESCs were cultured in hanging-drops with the proteasomal inhibitor MG132 at 100 nm, and then plated in regular culture for 1-2 days.
# [9] = system: mouse peritoneal macrophages; test: TUNEL staining of acLDL-loaded mouse peritoneal macrophages; type: cell-based; settings: for number of TUNEL positive cells: acLDL-preloaded macrophages, agent alone, over incubation time
# Description: FIG. 15 is a graph showing TUNEL staining of mouse peritoneal macrophages. Macrophages loaded with acLDL were treated with CP-113,818 (▪), CP-113,818 plus U18666A (♦), or U18666A in medium containing 0.2% BSA (□). After treatment the cells were fixed and nuclear DNA fragments were labeled using a fluorescent TUNEL assay.
# It was tested whether cholesterol accumulation can induce apoptosis in cells treated with the acyl coenzyme-A:cholesterol acyltransferase (ACAT) inhibitor CP-113,818. In situ labeling of DNA fragments were analyzed in murine macrophages treated with the inhibitors using the TUNEL technique. […] Few TUNEL positive cells were detected in untreated control and in cultures treated with CP-113,818 plus U18666A for 24 h. Thus, inhibition of cholesterol transport with U18666A blocked the apoptotic effect of the ACAT inhibitor.
# [10] = system: NF-κB p65/RelA; test: Immunoblotting for p65/RelA subunit of NF-κB, total cellular or nuclear proteins of H9c2 cells; type: cell-based, rat; settings: Y-27632 10^−4 mol/L
structure (smiles),measurement,setting,value
CC(C)NCC(O)COc1cccc2ccccc12 (stereo not drawn) [propanolol],effect on isoproterenol stimulation of contraction,[1]; propanolol 25 ng/ml with isoproterenol 10 ng/ml,almost abolished the isoproterenol stimulatory effect
CCN(CC)CCOc1ccc(C(O)(Cc2ccc(Cl)cc2)c2ccc(C)cc2)cc1 (stereo not drawn) [triparanol],teratogenic effect,[2],holoprosencephalic brain anomalies
"CC(C)=CCC/C(C)=C/CC/C(C)=C/COP(=O)(O)OP(=O)(O)O [FPP, farnesylpyrophosphate]",effect on nitrite production in cells treated with simvastatin plus IL-1α,[3],did not alter nitrite accumulation
CC(C)c1c(C(=O)Nc2ccccc2)c(-c2ccccc2)c(-c2ccc(F)cc2)n1CC[C@@H](O)C[C@@H](O)CC(=O)O [atorvastatin],Rho kinase activity,[4],inhibit the Rho kinase activity
CCC(C)(C)C(=O)O[C@H]1C[C@@H](C)C=C2C=C[C@H](C)[C@H](CC[C@@H]3C[C@@H](O)CC(=O)O3)[C@H]21 [simvastatin],lowest concentration achieving the inhibitory effect on iNOS expression,"[5]; H9c2, cytokine-stimulated",10^−8 mol/L
same,concentration giving the highest levels of phosphorylated IκBα,[6],10^−7 mol/L
same,"size of the beating area, increase compared to untreated control EBs",[7],2 fold
same,percentage of beating EB outgrowths,"[7]; simvastatin, untreated control 18±0.1%",42±0.1%
CC(C)C[C@@H](C=O)NC(=O)[C@H](CC(C)C)NC(=O)[C@H](CC(C)C)NC(=O)OCc1ccccc1 [MG132] (Cbz-Leu-Leu-Leu-aldehyde),EB morphology / cell differentiation,[8],spread out and surrounded by differentiated cells
same,EB morphology / cell differentiation,[8]; listed as MG-132,helped the cell differentiation
"CCCCCCCC[C@H](SCCCCCC)C(=O)Nc1c(SC)cc(C)nc1SC [CP-113,818]",number of TUNEL positive cells,[9],increase in the number of TUNEL positive cells
O=C(O)c1ccc(CCN2CCN(C/C=C/c3ccc(Cl)cc3)CC2)cc1 [BM 15766],teratogenic effect,[2],holoprosencephalic brain anomalies
C[C@@H](N)[C@H]1CC[C@H](C(=O)Nc2ccncc2)CC1 [Y-27632],effect on simvastatin inhibition of cytokine-induced iNOS protein expression,[5]; H9c2,almost abolished the inhibitory effect of simvastatin
same,cytokine-induced iNOS protein expression in the absence of simvastatin,"[5]; H9c2, cytokine-stimulated, no simvastatin",did not alter cytokine-induced iNOS protein expression
same,nitrite production (iNOS activity) in cytokine-treated cells,"[3]; IL-1α, Y-27632 10^−6 to 10^−5 mol/L, no simvastatin",enhances NO production; also recorded: dose-dependently increased the iNOS activity
same,effect on nitrite production in cells treated with simvastatin plus IL-1α,[3],reversal of the statin-induced nitrite reduction; also recorded: reversed the statin inhibitory effect on iNOS activities
same,nuclear NF-κB (p65) translocation in presence of IL-1α,[10],no major effect on the nuclear NF-κB translocation
Clc1ccccc1CNCC1CCC(CNCc2ccccc2Cl)CC1 (stereo not drawn) [AY 9944],teratogenic effect,[2],holoprosencephalic brain anomalies
CC(C)CCC[C@@H](C)[C@H]1CC[C@H]2[C@@H]3CC=C4C[C@@H](O)CC[C@]4(C)[C@H]3CC[C@]12C [cholesterol],effect of exogenous cholesterol on the statin effect on iNOS expression,[5],does not prevent the statin effect
CC(C)NCC(O)c1ccc(O)c(O)c1 (stereo not drawn) [isoproterenol],contraction of beating myocytes,"[1]; mESC-derived EBs, isoproterenol 10 ng/ml",marked increased contraction in both frequency and ampltitute
CCN(CC)CCO[C@H]1CC[C@@]2(C)C(=CC[C@@H]3[C@@H]2CC[C@]2(C)C(=O)CC[C@@H]32)C1 [U18666A],"number of TUNEL positive cells with CP-113,818 co-treatment","[9]; U18666A simultaneously with CP-113,818",greatly reduced
same,number of TUNEL positive cells,[9],no effect on the number of cells bearing this marker of apoptosis
"CC(C)=CCC/C(C)=C/CC/C(C)=C/CC/C(C)=C/COP(=O)(O)OP(=O)(O)O [GGPP, geranylgeranylpyrophosphate]",effect on simvastatin inhibition of cytokine-induced iNOS protein expression,[5]; H9c2,reversed the simvastatin-mediated suppression; also recorded: prevented the inhibitory effect of simvastatin; also recorded: attenuates the simvastatin inhibitory effect
same,effect on nitrite production in cells treated with simvastatin plus IL-1α,[3],attenuates the simvastatin inhibitory effect; also recorded: reversed the simvastatin-mediated suppression
